According to ChEMBL document CHEMBL1153040, “HIF-1alpha peptide derivatives with modifications at the hydroxyproline residue as activators of HIF-1alpha” (Bioorg Med Chem Lett, 2009):
Calls of active or inactive are those of the source. The rule behind the calls is not given here.

Each compound was assayed against Hypoxia-inducible factor 1-alpha (Homo sapiens, UniProt Q16665) (assay: Inhibition of interaction between fluorescein-labeled proline hydroxylated human HIFalpha (556 to 575) and human VHL-human elongin B-human elongin C complex expressed in Escherichia coli by fluorescence polarization assay).
Sequence of Hypoxia-inducible factor 1-alpha (Q16665 whole entry): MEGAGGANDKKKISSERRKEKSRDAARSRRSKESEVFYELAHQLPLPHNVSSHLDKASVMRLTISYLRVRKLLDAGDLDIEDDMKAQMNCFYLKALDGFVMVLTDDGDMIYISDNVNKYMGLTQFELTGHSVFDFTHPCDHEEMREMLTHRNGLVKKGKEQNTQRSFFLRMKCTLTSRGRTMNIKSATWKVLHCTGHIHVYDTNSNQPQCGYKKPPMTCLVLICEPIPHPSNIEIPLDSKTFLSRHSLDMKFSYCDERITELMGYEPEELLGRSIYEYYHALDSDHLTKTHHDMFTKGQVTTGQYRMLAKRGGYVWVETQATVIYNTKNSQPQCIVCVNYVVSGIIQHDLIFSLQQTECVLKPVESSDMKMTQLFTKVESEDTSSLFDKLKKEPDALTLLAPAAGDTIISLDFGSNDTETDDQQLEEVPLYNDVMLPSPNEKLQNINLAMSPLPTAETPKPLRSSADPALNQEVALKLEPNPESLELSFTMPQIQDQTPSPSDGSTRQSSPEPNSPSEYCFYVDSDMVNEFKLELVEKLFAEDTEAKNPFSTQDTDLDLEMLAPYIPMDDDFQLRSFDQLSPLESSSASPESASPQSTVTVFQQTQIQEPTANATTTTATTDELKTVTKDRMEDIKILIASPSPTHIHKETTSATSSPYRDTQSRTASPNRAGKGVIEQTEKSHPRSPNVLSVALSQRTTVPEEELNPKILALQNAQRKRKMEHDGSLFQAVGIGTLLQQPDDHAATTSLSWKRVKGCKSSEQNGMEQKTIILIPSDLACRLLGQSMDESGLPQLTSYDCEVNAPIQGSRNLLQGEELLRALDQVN

Ki | Structure (SMILES)
13 µM | CC[C@@H](C)[C@H](NC(=O)[C@H](Cc1ccc(O)cc1)NC(=O)[C@H](CC(N)=O)NC(=O)[C@H](C)NC(=O)[C@H](CC(C)C)NC(=O)[C@H](C)NC(=O)[C@H](CCC(=O)O)NC(=O)[C@H](CC(C)C)NC(=O)[C@H](CC(=O)O)NC(=O)[C@H](CC(C)C)NC(=O)[C@@H](N)CC(=O)O)C(=O)N1CCC[C@H]1C(=O)N[C@@H](C)C(=O)N[C@@H](CC(=O)O)C(=O)N[C@@H](CC(=O)O)C(=O)N[C@@H](CC(=O)O)C(=O)N[C@@H](Cc1ccccc1)C(=O)N[C@@H](CCC(N)=O)C(=O)N[C@@H](CC(C)C)C(=O)N[C@@H](CCCNC(=N)N)C(N)=O
5.8 µM | CC[C@@H](C)[C@H](NC(=O)[C@H](Cc1ccc(O)cc1)NC(=O)[C@@H]1C[C@@H](F)CN1C(=O)[C@H](C)NC(=O)[C@H](CC(C)C)NC(=O)[C@H](C)NC(=O)[C@H](CCC(=O)O)NC(=O)[C@H](CC(C)C)NC(=O)[C@H](CC(=O)O)NC(=O)[C@H](CC(C)C)NC(=O)[C@@H](N)CC(=O)O)C(=O)N1CCC[C@H]1C(=O)N[C@@H](C)C(=O)N[C@@H](CC(=O)O)C(=O)N[C@@H](CC(=O)O)C(=O)N[C@@H](CC(=O)O)C(=O)N[C@@H](Cc1ccccc1)C(=O)N[C@@H](CCC(N)=O)C(=O)N[C@@H](CC(C)C)C(=O)N[C@@H](CCCNC(=N)N)C(N)=O
3.4 µM | CC[C@@H](C)[C@H](NC(=O)[C@H](Cc1ccc(O)cc1)NC(=O)[C@H](CCO)NC(=O)[C@H](C)NC(=O)[C@H](CC(C)C)NC(=O)[C@H](C)NC(=O)[C@H](CCC(=O)O)NC(=O)[C@H](CC(C)C)NC(=O)[C@H](CC(=O)O)NC(=O)[C@H](CC(C)C)NC(=O)[C@@H](N)CC(=O)O)C(=O)N1CCC[C@H]1C(=O)N[C@@H](C)C(=O)N[C@@H](CC(=O)O)C(=O)N[C@@H](CC(=O)O)C(=O)N[C@@H](CC(=O)O)C(=O)N[C@@H](Cc1ccccc1)C(=O)N[C@@H](CCC(N)=O)C(=O)N[C@@H](CC(C)C)C(=O)N[C@@H](CCCN=C(N)N)C(N)=O
15 µM | CC[C@@H](C)[C@H](NC(=O)[C@H](Cc1ccc(O)cc1)NC(=O)[C@H](CC(=O)O)NC(=O)[C@H](C)NC(=O)[C@H](CC(C)C)NC(=O)[C@H](C)NC(=O)[C@H](CCC(=O)O)NC(=O)[C@H](CC(C)C)NC(=O)[C@H](CC(=O)O)NC(=O)[C@H](CC(C)C)NC(=O)[C@@H](N)CC(=O)O)C(=O)N1CCC[C@H]1C(=O)N[C@@H](C)C(=O)N[C@@H](CC(=O)O)C(=O)N[C@@H](CC(=O)O)C(=O)N[C@@H](CC(=O)O)C(=O)N[C@@H](Cc1ccccc1)C(=O)N[C@@H](CCC(N)=O)C(=O)N[C@@H](CC(C)C)C(=O)N[C@@H](CCCNC(=N)N)C(N)=O
50 µM | CC[C@@H](C)[C@H](NC(=O)[C@H](C)NC(=O)[C@H](CC(C)C)NC(=O)[C@H](C)NC(=O)[C@H](CCC(=O)O)NC(=O)[C@H](CC(C)C)NC(=O)[C@H](CC(=O)O)NC(=O)[C@H](CC(C)C)NC(=O)[C@@H](N)CC(=O)O)C(=O)N[C@@H](Cc1ccc(O)cc1)C(=O)N[C@H](C(=O)N1CCC[C@H]1C(=O)N[C@@H](C)C(=O)N[C@@H](CC(=O)O)C(=O)N[C@@H](CC(=O)O)C(=O)N[C@@H](CC(=O)O)C(=O)N[C@@H](Cc1ccccc1)C(=O)N[C@@H](CCC(N)=O)C(=O)N[C@@H](CC(C)C)C(=O)N[C@@H](CCCN=C(N)N)C(N)=O)[C@H](C)CC
109 µM | CC[C@@H](C)[C@H](NC(=O)[C@H](Cc1ccc(O)cc1)NC(=O)[C@H](CCN)NC(=O)[C@H](C)NC(=O)[C@H](CC(C)C)NC(=O)[C@H](C)NC(=O)[C@H](CCC(=O)O)NC(=O)[C@H](CC(C)C)NC(=O)[C@H](CC(=O)O)NC(=O)[C@H](CC(C)C)NC(=O)[C@@H](N)CC(=O)O)C(=O)N1CCC[C@H]1C(=O)N[C@@H](C)C(=O)N[C@@H](CC(=O)O)C(=O)N[C@@H](CC(=O)O)C(=O)N[C@@H](CC(=O)O)C(=O)N[C@@H](Cc1ccccc1)C(=O)N[C@@H](CCC(N)=O)C(=O)N[C@@H](CC(C)C)C(=O)N[C@@H](CCCN=C(N)N)C(N)=O
77 µM | CC[C@@H](C)[C@H](NC(=O)[C@H](Cc1ccc(O)cc1)NC(=O)[C@@H]1CCCCN1C(=O)[C@H](C)NC(=O)[C@H](CC(C)C)NC(=O)[C@H](C)NC(=O)[C@H](CCC(=O)O)NC(=O)[C@H](CC(C)C)NC(=O)[C@H](CC(=O)O)NC(=O)[C@H](CC(C)C)NC(=O)[C@@H](N)CC(=O)O)C(=O)N1CCC[C@H]1C(=O)N[C@@H](C)C(=O)N[C@@H](CC(=O)O)C(=O)N[C@@H](CC(=O)O)C(=O)N[C@@H](CC(=O)O)C(=O)N[C@@H](Cc1ccccc1)C(=O)N[C@@H](CCC(N)=O)C(=O)N[C@@H](CC(C)C)C(=O)N[C@@H](CCCN=C(N)N)C(N)=O
3.7 µM | CC[C@@H](C)[C@H](NC(=O)[C@H](Cc1ccc(O)cc1)NC(=O)[C@@H]1C[C@@H](O)CN1C(=O)[C@H](C)NC(=O)[C@H](CC(C)C)NC(=O)[C@H](C)NC(=O)[C@H](CCC(=O)O)NC(=O)[C@H](CC(C)C)NC(=O)[C@H](CC(=O)O)NC(=O)[C@H](CC(C)C)NC(=O)[C@@H](N)CC(=O)O)C(=O)N1CCC[C@H]1C(=O)N[C@@H](C)C(=O)N[C@@H](CC(=O)O)C(=O)N[C@@H](CC(=O)O)C(=O)N[C@@H](CC(=O)O)C(=O)N[C@@H](Cc1ccccc1)C(=O)N[C@@H](CCC(N)=O)C(=O)N[C@@H](CC(C)C)C(=O)N[C@@H](CCCN=C(N)N)C(N)=O
58 µM | CC[C@@H](C)[C@H](NC(=O)[C@H](Cc1ccc(O)cc1)NC(=O)[C@H](CC(C)C)NC(=O)[C@H](C)NC(=O)[C@H](CC(C)C)NC(=O)[C@H](C)NC(=O)[C@H](CCC(=O)O)NC(=O)[C@H](CC(C)C)NC(=O)[C@H](CC(=O)O)NC(=O)[C@H](CC(C)C)NC(=O)[C@@H](N)CC(=O)O)C(=O)N1CCC[C@H]1C(=O)N[C@@H](C)C(=O)N[C@@H](CC(=O)O)C(=O)N[C@@H](CC(=O)O)C(=O)N[C@@H](CC(=O)O)C(=O)N[C@@H](Cc1ccccc1)C(=O)N[C@@H](CCC(N)=O)C(=O)N[C@@H](CC(C)C)C(=O)N[C@@H](CCCNC(=N)N)C(N)=O
16 µM | CC[C@@H](C)[C@H](NC(=O)[C@H](Cc1ccc(O)cc1)NC(=O)[C@@H](NC(=O)[C@H](C)NC(=O)[C@H](CC(C)C)NC(=O)[C@H](C)NC(=O)[C@H](CCC(=O)O)NC(=O)[C@H](CC(C)C)NC(=O)[C@H](CC(=O)O)NC(=O)[C@H](CC(C)C)NC(=O)[C@@H](N)CC(=O)O)C(C)C)C(=O)N1CCC[C@H]1C(=O)N[C@@H](C)C(=O)N[C@@H](CC(=O)O)C(=O)N[C@@H](CC(=O)O)C(=O)N[C@@H](CC(=O)O)C(=O)N[C@@H](Cc1ccccc1)C(=O)N[C@@H](CCC(N)=O)C(=O)N[C@@H](CC(C)C)C(=O)N[C@@H](CCCNC(=N)N)C(N)=O
> 500 µM | CC[C@@H](C)[C@H](NC(=O)[C@H](Cc1ccc(O)cc1)NC(=O)[C@@H]1CCCN1C(=O)[C@H](C)NC(=O)[C@H](CC(C)C)NC(=O)[C@H](C)NC(=O)[C@H](CCC(=O)O)NC(=O)[C@H](CC(C)C)NC(=O)[C@H](CC(=O)O)NC(=O)[C@H](CC(C)C)NC(=O)[C@@H](N)CC(=O)O)C(=O)N1CCC[C@H]1C(=O)N[C@@H](C)C(=O)N[C@@H](CC(=O)O)C(=O)N[C@@H](CC(=O)O)C(=O)N[C@@H](CC(=O)O)C(=O)N[C@@H](Cc1ccccc1)C(=O)N[C@@H](CCC(N)=O)C(=O)N[C@@H](CC(C)C)C(=O)N[C@@H](CCCNC(=N)N)C(N)=O
18 µM | CC[C@@H](C)[C@H](NC(=O)[C@H](Cc1ccc(O)cc1)NC(=O)[C@@H](NC(=O)[C@H](C)NC(=O)[C@H](CC(C)C)NC(=O)[C@H](C)NC(=O)[C@H](CCC(=O)O)NC(=O)[C@H](CC(C)C)NC(=O)[C@H](CC(=O)O)NC(=O)[C@H](CC(C)C)NC(=O)[C@@H](N)CC(=O)O)[C@H](C)O)C(=O)N1CCC[C@H]1C(=O)N[C@@H](C)C(=O)N[C@@H](CC(=O)O)C(=O)N[C@@H](CC(=O)O)C(=O)N[C@@H](CC(=O)O)C(=O)N[C@@H](Cc1ccccc1)C(=O)N[C@@H](CCC(N)=O)C(=O)N[C@@H](CC(C)C)C(=O)N[C@@H](CCCN=C(N)N)C(N)=O

Each compound was assayed on HeLa (assay: Induction of HIFalpha stabilization in human HeLa cells assessed as HIFalpha accumulation at 1 mM incubated under normoxic condition for 6 hrs by Western blot analysis).
Assay type: functional, cell-based

Structure (SMILES) | Activity
CC[C@@H](C)[C@H](NC(=O)[C@H](Cc1ccc(O)cc1)NC(=O)[C@@H]1C[C@@H](O)CN1C(=O)[C@H](C)NC(=O)[C@H](CC(C)C)NC(=O)[C@H](C)NC(=O)[C@H](CCC(=O)O)NC(=O)[C@H](CC(C)C)NC(=O)[C@H](CC(=O)O)NC(=O)[C@H](CC(C)C)NC(=O)[C@@H](N)CC(=O)O)C(=O)N1CCC[C@H]1C(=O)N[C@@H](C)C(=O)N[C@@H](CC(=O)O)C(=O)N[C@@H](CC(=O)O)C(=O)N[C@@H](CC(=O)O)C(=O)N[C@@H](Cc1ccccc1)C(=O)N[C@@H](CCC(N)=O)C(=O)N[C@@H](CC(C)C)C(=O)N[C@@H](CCCNC(=N)N)C(N)=O | Active
CC[C@@H](C)[C@H](NC(=O)[C@H](Cc1ccc(O)cc1)NC(=O)[C@@H]1C[C@@H](F)CN1C(=O)[C@H](C)NC(=O)[C@H](CC(C)C)NC(=O)[C@H](C)NC(=O)[C@H](CCC(=O)O)NC(=O)[C@H](CC(C)C)NC(=O)[C@H](CC(=O)O)NC(=O)[C@H](CC(C)C)NC(=O)[C@@H](N)CC(=O)O)C(=O)N1CCC[C@H]1C(=O)N[C@@H](C)C(=O)N[C@@H](CC(=O)O)C(=O)N[C@@H](CC(=O)O)C(=O)N[C@@H](CC(=O)O)C(=O)N[C@@H](Cc1ccccc1)C(=O)N[C@@H](CCC(N)=O)C(=O)N[C@@H](CC(C)C)C(=O)N[C@@H](CCCNC(=N)N)C(N)=O | Active
CC[C@@H](C)[C@H](NC(=O)[C@H](Cc1ccc(O)cc1)NC(=O)[C@H](CCO)NC(=O)[C@H](C)NC(=O)[C@H](CC(C)C)NC(=O)[C@H](C)NC(=O)[C@H](CCC(=O)O)NC(=O)[C@H](CC(C)C)NC(=O)[C@H](CC(=O)O)NC(=O)[C@H](CC(C)C)NC(=O)[C@@H](N)CC(=O)O)C(=O)N1CCC[C@H]1C(=O)N[C@@H](C)C(=O)N[C@@H](CC(=O)O)C(=O)N[C@@H](CC(=O)O)C(=O)N[C@@H](CC(=O)O)C(=O)N[C@@H](Cc1ccccc1)C(=O)N[C@@H](CCC(N)=O)C(=O)N[C@@H](CC(C)C)C(=O)N[C@@H](CCCNC(=N)N)C(N)=O | Active
CC[C@@H](C)[C@H](NC(=O)[C@H](Cc1ccc(O)cc1)NC(=O)[C@H](CC(C)C)NC(=O)[C@H](C)NC(=O)[C@H](CC(C)C)NC(=O)[C@H](C)NC(=O)[C@H](CCC(=O)O)NC(=O)[C@H](CC(C)C)NC(=O)[C@H](CC(=O)O)NC(=O)[C@H](CC(C)C)NC(=O)[C@@H](N)CC(=O)O)C(=O)N1CCC[C@H]1C(=O)N[C@@H](C)C(=O)N[C@@H](CC(=O)O)C(=O)N[C@@H](CC(=O)O)C(=O)N[C@@H](CC(=O)O)C(=O)N[C@@H](Cc1ccccc1)C(=O)N[C@@H](CCC(N)=O)C(=O)N[C@@H](CC(C)C)C(=O)N[C@@H](CCCNC(=N)N)C(N)=O | inactive
